Laboratory results: patent US8802597B2, “Herbicidal pyrimidines” (E I du Pont de Nemours and Company, priority 2003, dated 2014)

Key:
Format in all cases: in vivo
[1] = tested on: Italian ryegrass (Lolium multiflorum); experiment: Test C postemergence
Outline: (§1)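 We sprayed seeded pots preemergence and 2–18 cm seedlings postemergence with test chemicals in a non-phytotoxic solvent mixture including surfactant. Greenhouse plants were visually compared with untreated controls at 12 to 14 days and scored 0 (no effect) to 100 (complete control).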

[2] = tested on: blackgrass (Alopecurus myosuroides); experiment: Test C postemergence
Outline: as §1

[3] = tested on: canarygrass (Phalaris minor); experiment: Test C postemergence
Outline: as §1

[4] = tested on: downy brome (Bromus tectorum); experiment: Test C postemergence
Outline: as §1

[5] = tested on: green foxtail (Setaria viridis); experiment: Test C postemergence
Outline: as §1

[6] = tested on: wheat (Triticum aestivum); experiment: Test C postemergence
Outline: as §1

wild oat (Avena fatua) = experiment: Test C postemergence
Outline: as §1

[7] = tested on: windgrass (Apera spica-venti); experiment: Test C postemergence
Outline: as §1

[8] = tested on: winter barley (Hordeum vulgare); experiment: Test C postemergence; details: for Barley plant response rating: scale 0 to 100 (0 no effect, 100 complete control)
Outline: as §1

[9] = tested on: barnyardgrass (Echinochloa crus-galli); experiment: Test E flooded paddy water application; details: Flood, 21 days, scale 0 to 100 (0 no effect, 100 complete control)
Outline: (§2)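 Weeds sown in sterilized Tama silt loam (2.6% organic matter), greenhouse 29.5/26.7° C, 16-h photoperiod; at 2.0–2.5-leaf stage pots flooded to 3 cm and compound added to paddy water. Visual rating vs untreated controls after 21 days, 0 (no effect) to 100 (complete control).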

[10] = tested on: bearded (brdd.) sprangletop (Leptochloa fusca ssp. fascicularis); experiment: Test E flooded paddy water application; details: Flood, 21 days, scale 0 to 100 (0 no effect, 100 complete control)
Outline: as §2

[11] = tested on: late watergrass (Echinochloa oryzicola); experiment: Test E flooded paddy water application; details: Flood, 21 days, scale 0 to 100 (0 no effect, 100 complete control)
Outline: as §2

[12] = tested on: purple redstem (Ammannia coccinea); experiment: Test E flooded paddy water application; details: Flood, 21 days, scale 0 to 100 (0 no effect, 100 complete control)
Outline: as §2

[13] = tested on: rice flatsedge (Cyperus iria); experiment: Test E flooded paddy water application; details: Flood, 21 days, scale 0 to 100 (0 no effect, 100 complete control)
Outline: as §2

[14] = tested on: transplanted rice seedlings (Oryza sativa cv. ‘Japonica-M202’); experiment: Test E flooded paddy water application; details: Flood, 21 days, scale 0 to 100 (0 no effect, 100 complete control)
Outline: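 Response scored visually on a 0–100 scale (100 = complete control) at 21 days against untreated pots. Treatment was into paddy water 3 cm deep over silt loam, with plants at the 2.0–2.5-leaf stage, grown under 16-h light at 29.5/26.7 °C day/night.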

[15] = 125 g ai/ha, scale 0 to 100 (0 no effect, 100 complete control)

SMILES: COC(=O)c1nc(-c2ccc(Br)cc2)nc(N)c1Br [Compound 129]
- Plant response rating (scale of 0 to 100), Ryegrass, Italian ([1]; 16 g ai/ha): 45
- Plant response rating (scale of 0 to 100), Ryegrass, Italian ([1]; 31 g ai/ha): 55
- Plant response rating (scale of 0 to 100), Ryegrass, Italian ([1]; 62 g ai/ha): 55
- Ryegrass, Italian plant response rating [1, 15]: 60
- Plant response rating (scale of 0 to 100), Blackgrass ([2]; 16 g ai/ha): 35
- Plant response rating (scale of 0 to 100), Blackgrass ([2]; 31 g ai/ha): 45
- Plant response rating (scale of 0 to 100), Blackgrass ([2]; 62 g ai/ha): 50
- Blackgrass plant response rating [2, 15]: 50
- Plant response rating (scale of 0 to 100), Canarygrass ([3]; 16 g ai/ha): 0
- Plant response rating (scale of 0 to 100), Canarygrass ([3]; 31 g ai/ha): 30
- Plant response rating (scale of 0 to 100), Canarygrass ([3]; 62 g ai/ha): 30
- Canarygrass plant response rating [3, 15]: 30
- Plant response rating (scale of 0 to 100), Bromegrass, Downy ([4]; 16 g ai/ha): 0
- Plant response rating (scale of 0 to 100), Bromegrass, Downy ([4]; 31 g ai/ha): 0
- Plant response rating (scale of 0 to 100), Bromegrass, Downy ([4]; 62 g ai/ha): 0
- Bromegrass, Downy plant response rating [4, 15]: 0
- Plant response rating (scale of 0 to 100), Foxtail, Green ([5]; 16 g ai/ha): 40
- Plant response rating (scale of 0 to 100), Foxtail, Green ([5]; 31 g ai/ha): 40
- Plant response rating (scale of 0 to 100), Foxtail, Green ([5]; 62 g ai/ha): 40
- Foxtail, Green plant response rating [5, 15]: 60
- Plant response rating (scale of 0 to 100), Wheat ([6]; 16 g ai/ha): 0
- Plant response rating (scale of 0 to 100), Wheat ([6]; 31 g ai/ha): 35
- Plant response rating (scale of 0 to 100), Wheat ([6]; 62 g ai/ha): 35
- Wheat plant response rating [6, 15]: 35
- Plant response rating (scale of 0 to 100), Oat, Wild (wild oat (Avena fatua); 16 g ai/ha): 30
- Plant response rating (scale of 0 to 100), Oat, Wild (wild oat (Avena fatua); 31 g ai/ha): 35
- Plant response rating (scale of 0 to 100), Oat, Wild (wild oat (Avena fatua); 62 g ai/ha): 40
- Oat, Wild plant response rating (wild oat (Avena fatua); [15]): 40
- Plant response rating (scale of 0 to 100), Windgrass ([7]; 16 g ai/ha): 40
- Plant response rating (scale of 0 to 100), Windgrass ([7]; 31 g ai/ha): 45
- Plant response rating (scale of 0 to 100), Windgrass ([7]; 62 g ai/ha): 60
- Windgrass plant response rating [7, 15]: 60
- Plant response rating (scale of 0 to 100), Barley ([8]; 16 g ai/ha): 35
- Plant response rating (scale of 0 to 100), Barley ([8]; 31 g ai/ha): 40
- Barley plant response rating ([8]; 62 g ai/ha): 45
- Barley plant response rating ([8]; 125 g ai/ha): 45
- Barnyardgrass plant response rating ([9]; 32 g ai/ha): 0
- Barnyardgrass plant response rating ([9]; 64 g ai/ha): 0
- Barnyardgrass plant response rating ([9]; 125 g ai/ha): 0
- Barnyardgrass plant response rating ([9]; 250 g ai/ha): 0
- Plant response rating, Barnyardgrass ([9]; 16 g ai/ha): 0
- Sprangletop, Brdd. plant response rating ([10]; 64 g ai/ha): 0
- Sprangletop, Brdd. plant response rating ([10]; 125 g ai/ha): 0
- Sprangletop, Brdd. plant response rating ([10]; 250 g ai/ha): 70
- Plant response rating, Sprangletop, Brdd. ([10]; 16 g ai/ha): 0
- Plant response rating, Sprangletop, Brdd. ([10]; 32 g ai/ha): 0
- Watergrass, Late plant response rating ([11]; 64 g ai/ha): 0
- Watergrass, Late plant response rating ([11]; 125 g ai/ha): 0
- Watergrass, Late plant response rating ([11]; 250 g ai/ha): 0
- Plant response rating, Watergrass, Late ([11]; 16 g ai/ha): 0
- Plant response rating, Watergrass, Late ([11]; 32 g ai/ha): 0
- Redstem plant response rating ([12]; 64 g ai/ha): 75
- Redstem plant response rating ([12]; 125 g ai/ha): 80
- Redstem plant response rating ([12]; 250 g ai/ha): 95
- Plant response rating, Redstem ([12]; 16 g ai/ha): 30
- Plant response rating, Redstem ([12]; 32 g ai/ha): 60
- Flatsedge, Rice plant response rating ([13]; 64 g ai/ha): 100
- Flatsedge, Rice plant response rating ([13]; 125 g ai/ha): 100
- Flatsedge, Rice plant response rating ([13]; 250 g ai/ha): 100
- Plant response rating, Flatsedge, Rice ([13]; 16 g ai/ha): 100
- Plant response rating, Flatsedge, Rice ([13]; 32 g ai/ha): 100
- Rice, Transplanted plant response rating ([14]; 64 g ai/ha): 0
- Rice, Transplanted plant response rating ([14]; 125 g ai/ha): 0
- Rice, Transplanted plant response rating ([14]; 250 g ai/ha): 0
- Plant response rating, Rice, Transplanted ([14]; 16 g ai/ha): 0
- Plant response rating, Rice, Transplanted ([14]; 32 g ai/ha): 0
